The experiment concerns healthy mongrel dogs. Briefly: Arginine aerosol with or without dextran in anaesthetized dogs: PD, TMV, mucus rigidity. The experiment is classed as in vivo, dog. As for the experimental part: Arginine/arg. HCl was prepared as described by Solomons (Pediatrics 1971;47:384), making a stock solution of 290 mOsm, pH 7.4. Two dilutions were prepared, 97 and 29 mOsm, the balance being Ringers. The solutions were delivered by Pari jet nebulizer to 8 healthy mongrel dogs anaesthetized with pentobarbital and intubated. After 30 min. Ringer aerosol, tracheal mucus velocity (TMV by charcoal particle transport) and potential difference (PD by agar bridge) were measured under bronchoscopic control, and mucus for viscoelasticity analysis (magnetic rheometer) was collected on the endotracheal tube. On one occasion, increasing arginine conc. were aerosolized hourly, following Ringer control. On a second occasion, the same arginine solutions were used, but with 65 mg/ml low m. w. dextran (Polydex, lot #2764) added.

Compound `N=C(N)NCCC[C@H](N)C(=O)O` [arginine, L-arginine] showed a TMV (arginine aerosol with or without dextran, increased nonsignificantly from 11.9±2.2 (Ringer)) of 14.7±2.9 mm/min. Moreover, under “arginine aerosol without dextran”, the “mucus rigidity (log G*) decreased” value was “not”. In addition, under “increasing arginine aerosol, with or without added dextran 65 mg/ml, Ringer −14.3±1.4 mV”, the “lumen-negative PD” value was −20.1±3.6 mV.

For the origin of these results see US6339075B1, “Use of dextran and other polysaccharides to improve mucus clearance” (The University of British Columbia, priority 1997, dated 2002).
